Patent US9433663B2, “Mobilization of hematopoietic stem cells” (Children's Hospital Medical Center, priority 2008, dated 2016)

What was measured:
N-RasMA93 cells [1] = test: F-actin reorganization of N-RasMA93 leukemia cells; type: cell-based, human; details: in vitro
Method: FIG. 5A. SDF-1α induced F-actin polymerization without or with gradient CASIN pre-treatments was determined by MFI using FACS analysis.
(§1) Like normal HSCs, their malignant counterpart, leukemia initiating cells (LICs) reside in their BM niches that provide the structural and physiological conditions supporting their survival and growth. LICs are resistant to traditional chemotherapy by interacting with their BM microenvironment, which are the culprits of leukemia relapses after a period of remission induced by chemotherapy. Detachment of LICs from their niche by CASIN would be a valuable supplementary therapy to the traditional cancer therapies (e.g., chemotherapies). First of all, in vitro effects of CASIN were examined in adhesion, migration, and F-actin polymerization of LICs, each of which is independently important for the retention of LICs in BM niches. Retroviral transduction of an MLL-AF9 fusion cDNA together with N-Ras oncogene into normal human CD34^+cord blood cells led to the establishment of cultures of N-Ras-MA93 cells that can initiate acute myeloid leukemia in NOG mice. […] To address it, a human AML model was set up by transplanting N-RasMA93 cells into NOG mice intravenously.

C57Bl/6 mice = test: mobilization of colony-forming progenitors to peripheral blood, CFU-C assay; type: in vivo; details: intraperitoneal 2.4 mg/Kg, 40 hrs post administration, in comparison to vehicle control
Method: Whether CASIN administration can induce mobilization of HSC/Ps to peripheral blood of C57Bl/6 mice, mimicking the phenotype observed in Cdc42 conditional knockout mice, was evaluated. First of all, mobilization of hematopoietic progenitor cells was examined by CFU-C assays functionally (FIG. 3a). […] Secondarily, to further explore the ability of CASIN to mobilize LT-HSC which is crucial for long-term repopulation of the mobilized cells, serial transplantations were carried out, where 20 million PB from CASIN-mobilized C57Bl/6 mice was transplanted into primary recipient of NOD/SCID mice, and subsequent secondary and tertiary transplants were finished as well using prior BMs (FIG. 3c). Donor chimerisms were assessed by using H2K^b congenic marker which is positive for donors of C57Bl/6 strain and negative for recipients of NOD/SCID strain. […] Therefore, the studies show CASIN can efficiently mobilize colony-forming hematopoietic progenitors and LT-HSCs with self-renewal and multi-lineage differentiation capacity. Thirdly, to further investigate the potential of CASIN to vacate the BM niche after mobilization, six-color staining of the BM cells was performed from C57Bl/6 mice with or without CASIN treatment followed by FACS analysis. […] Therefore, a transient decrease in BM and a concomitant increase in peripheral organs of HSCs would be beneficial to facilitating the subsequent HSC transplantation.
To determinate the hematopoietic progenitor content in the PB of mobilized C57Bl/6 mice, colony-forming unit assay was performed as described previously. Briefly, 200 ul PB was plated in triplicate into methylcellulose (MethocultM3434; StemCell Technology, Vancouver, BC, Canada). Colonies were then counted 7 d later.

[2] = test system: human CD45^+ hematopoietic cells; test: mobilization of human CD45+ cells in NOD/SCID-hCB model; type: in vivo, NOD/SCID mice xenografted with human CD34^+ hCB cells; details: intravenous injection, by 20 min post administration
Method: To begin to study potential utility of CASIN in human hematopoietic stem cell mobilization, a series of cellular assays were carried out to determine the effects on human CD34^+ umbilical cord blood cells (HCBs). […] The effects of CASIN on human hematopoietic cell mobilization was therefore tested using a well established preclinical in vivo model (NOD/SCID-Hcb) of human hematopoietic function, where fresh CD34^+ hCB cells were transplanted into sub-lethally irradiated NOD/SCIDs by intrafemoral injection, and repopulated and maintained human hematopoietic reconstitution in the bone marrow of NOD/SCID recipient mice (FIG. 9b, FIG. 11) (Larochelle, A. et al. Nat Med 2, 1329-1337 (1996); Bhatia, M., et al. Proc Natl Acad Sci USA 94, 5320-5325 (1997)). Intravenous injections of CASIN were applied when human cells were well engrafted in the NOD/SCID recipients.
C57BL/6, NOD/SCID, NOD/SCID-SGM3 and NOD/SCIDγC−/− (NOG) were in house bred in the animal barrier facility of Cincinnati Children's Hospital Medical Center (CCHMC) and used at the age of 6-8 weeks old. Cultured N-RasMA93 cells were injected into NOD/SCIDγC−/− mice by tail vein. Freshly thawed CD34^+ hCB cells were transplanted into NOD/SCID mice by intrafemoral injection.

leukemia cells = test: apoptosis of leukemia cells by FACS analysis; type: cell-based, human; details: after 24 hrs' CASIN pre-treatment, FIG. 5D
Cdc42WT/WT MEF cells = test: Example 7 adhesion, migration, actin polymerization in MEF cells; type: cell-based, mouse; details: in vitro
Method: To further verify the specificity of CASIN on Cdc42 activity inhibition, adhesion, migration, Actin polymerization is evaluated in both Cdc42−/− and Cdc42WT/WT MEF cells under the following five groups: (1) Cdc42WT/WT cells without treatment; (2) Cdc42−/− cells without treatment; (3) Cdc42WT/WT cells treated with CASIN; (4) Cdc42WT/WT cells treated with control medium; (5) Cdc42−/− cells treated with CASIN, in order to verify that CASIN function through inhibiting Cdc42. similarly, activities of the down stream effectors of Cdc42, Rac, and Rho under the five groups are monitored by western blot as above.

N-RasMA93 cells [3] = test: adhesion of N-RasMA93 leukemia cells via CH296; type: cell-based, human; details: in vitro
Method: FIG. 5C. Adhesion of leukemia cells via CH296 without or with CASIN pre-treatment at doses of 5 and 10 μM was examined.
as §1

Cdc42 = Cdc42 (Mus musculus, UniProt P60766); test: Rho GTPase pull-down of BM cells after in vivo administration; set-up: from tissue; host or cells: bone marrow (LDBM) cells of C57Bl/6 mice; details: C57Bl/6 mice; FIG. 8a legend: BM cells harvested 20 mins after CASIN administration
Sequence of Cdc42 (P60766 whole entry): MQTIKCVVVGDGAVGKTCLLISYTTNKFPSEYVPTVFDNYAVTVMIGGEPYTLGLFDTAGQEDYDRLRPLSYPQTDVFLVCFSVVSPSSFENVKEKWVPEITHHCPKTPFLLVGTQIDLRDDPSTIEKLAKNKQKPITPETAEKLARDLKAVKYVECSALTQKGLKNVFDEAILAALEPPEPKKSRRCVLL
Method: FIG. 8A. CASIN inhibited Cdc42 activity in BM cells harvested from C57Bl/6 mice 20 mins after CASIN administration.
Whether CASIN administration can induce mobilization of HSC/Ps to peripheral blood of C57Bl/6 mice, mimicking the phenotype observed in Cdc42 conditional knockout mice, was evaluated. First of all, mobilization of hematopoietic progenitor cells was examined by CFU-C assays functionally (FIG. 3a). […] Secondarily, to further explore the ability of CASIN to mobilize LT-HSC which is crucial for long-term repopulation of the mobilized cells, serial transplantations were carried out, where 20 million PB from CASIN-mobilized C57Bl/6 mice was transplanted into primary recipient of NOD/SCID mice, and subsequent secondary and tertiary transplants were finished as well using prior BMs (FIG. 3c). Donor chimerisms were assessed by using H2K^b congenic marker which is positive for donors of C57Bl/6 strain and negative for recipients of NOD/SCID strain. […] Therefore, the studies show CASIN can efficiently mobilize colony-forming hematopoietic progenitors and LT-HSCs with self-renewal and multi-lineage differentiation capacity. Thirdly, to further investigate the potential of CASIN to vacate the BM niche after mobilization, six-color staining of the BM cells was performed from C57Bl/6 mice with or without CASIN treatment followed by FACS analysis. […]

## OCCNC1CCCc2c1[nH]c1ccc(-c3ccccc3)cc21 (stereo not shown) [CASIN]
N-RasMA93 cells [1]
  F-actin reorganization capacity of N-RasMA93 cells: significantly impaired
C57Bl/6 mice
  mobilization of colony-forming progenitors to the peripheral blood: more than six-fold
[2]
  human CD45^+ hematopoietic cells mobilized to the peripheral blood: significant amount of human CD45^+ hematopoietic cells mobilized to the peripheral blood
Leukemia cells
  apoptosis of leukemia cells: precipitated leukemia cells to apoptosis
Cdc42WT/WT MEF cells
  MEF cells' ability of adhesion, migration and actin polymerization: impairs
N-RasMA93 cells [3]
  adhesion capacity of N-RasMA93 cells: not affected significantly
Cdc42
  Cdc42 activity in LDBM cells after in vivo administration: really down
